Article PMC11943946, “Anti-Neuroinflammatory Eremophilane Sesquiterpenoids from Marine-Derived Fungus Phoma sp. DXH009” (Marine Drugs, 2025)

Assays:
[1] = system: LPS-activated BV-2 microglia; parameters: method as in PMID 34605647; settings: read-out: IC50 suppressing nitric oxide production; cited from earlier work
APP/PS1 transgenic mice = system: APP/PS1 transgenic mice; parameters: method as in PMID 39004599, PMID 25686105; settings: cited from earlier work
[2] = system: early-stage PD participants; parameters: method as in PMID 38504306; settings: Phase II trial NCT04542915; cited from earlier work
[3] = system: LPS-stimulated microglia BV2 cells; experiment: Cellular NO production in LPS-stimulated BV2 microglia; assay type: cell-based; settings: for NO inhibition (SAR statement) / reduction in NO content: 20 μM; for NO inhibition (SAR statement): relative to analogues with intact C-6–C-7 / C-11–C-12 motifs; for reduction in NO content: vs LPS control cells
Method: (§1) The cellular NO levels were determined using a Nitric Oxide Assay Kit with DAF-FM DA (Beyotime, Nantong, China). A total of 5000 cells were planted in 96-well plates and maintained for 24 h. Then, they were induced with 1 μg/mL lipopolysaccharide (LPS) in the presence or absence of compounds at a final concentration of 20 μM for 24 h. Untreated wells were used as control. Then, supernatant of the culture medium was investigated with a Nitric Oxide Assay Kit with DAF-FM DA (Beyotime, S0020S) per the manufacturer’s instruction. Cells were stained with 2 µM hochest 33,342 at room temperature for 10 min, then cell numbers were auto-counted using the high-content screening system. The cell number in the LPS control group was set as 100%, and the relative cell survival ratios were calculated.

Lactuca sativa = system: Lactuca sativa; parameters: method as in doi:10.1584/jpestics.14.223; settings: 250 ppm; cited from earlier work
[4] = system: Amaranthus hypochondriacus; parameters: method as in PMID 25603174; settings: read-out: IC50 herbicidal effect (radicle growth); cited from earlier work
[5] = BV2 cell viability / proliferation (CCK-8, cell count); assay type: cell-based; settings: mouse; BV2 cells, 24 h; read-out: IC50 against BV2 cell proliferation (cytotoxicity)
Method: as §1
(§2) BV2 microglial cells were seeded into 96-well plates at a density of 1 × 10^4 cells/well and allowed to adhere for 24 h. Cells were then exposed to different concentrations (20 μM for 1–9; 0, 1, 5, 10, 20, 50, 100 μM for 5) of the test compounds (1–9) in triplicate, with DMSO concentrations normalized across all treatment groups. After 24 h incubation, 10 μL CCK-8 reagent (Beyotime Biotechnology, Nantong, China) was added to each well, followed by 30 min incubation at 37 °C. Absorbance at 450 nm was quantified using a BioTek microplate reader (BioTek, Winooski, VT, USA), with cell viability calculated relative to vehicle-treated controls.

[6] = system: LPS-treated BV2 microglia cells; experiment: Microglia polarization markers ARG 1 and iNOS (immunofluorescence, immunoblot); assay type: cell-based; settings: 2.5, 5, 10 μM, LPS 0.5 μg/mL, 24 h
Method: Cells or tissues were lysed with RIPA lysis buffer containing protease and phosphatase inhibitor cocktail and total protein was extracted and quantified by using a protein determination kit (Thermo Fisher Scientific, Cat#23227, Beijing, China). Protein samples were prepared by centrifugation at the speed of 12,000× g for 30 min at 4 °C; the supernatant was boiled at 95 °C for 10 min and then subjected to SDS-PAGE. An amount of 15 µg of total protein was separated by electrophoresis in a 10% SDS-polyacrylamide gel and transferred to a PVDF membrane (Thermo Fisher Scientific, Cat#88520, Beijing, China). After blocking, the full membranes were cropped according to the molecular weight of examined proteins and incubated with antibodies at 4 °C overnight. […] The average protein levels of control group cells or control mice from each independent experiment or mice were set as 1, and relative changes were calculated.
For the immunofluorescence assay, cells were fixed with pre-cold ethanol at –20 °C, then blocked and incubated with anti-iNOS (Abcam, ab178945) and mouse anti-ARG 1 (Proteintech, 66129) at 4 °C overnight. […] Fluorescence images were acquired using a confocal microscope (Olympus, Tokyo, Japan).

Ehrlich carcinoma cells = system: Ehrlich carcinoma cells; parameters: method as in doi:10.1007/s10600-014-0836-9; settings: cited from earlier work
Echinochloa crus-galli = system: Echinochloa crus-galli; parameters: method as in PMID 25603174; settings: read-out: IC50 herbicidal effect (radicle growth); cited from earlier work
LPS-treated mice = experiment: LPS-induced neuroinflammation mouse model (cortex and hippocampus); assay type: in vivo; settings: intraperitoneal; for expression levels of IBA1 in cortex / inflammatory markers iNOS, COX2, IL-1β, IL-6 in cortex (mRNA and protein) / protein level of ARG 1 in cortex: 5 at 10, 20, 40 mg/kg or Dex 15 mg/kg
Method: (§3) Cells or tissues were lysed with RIPA lysis buffer containing protease and phosphatase inhibitor cocktail and total protein was extracted and quantified by using a protein determination kit (Thermo Fisher Scientific, Cat#23227, Beijing, China). Protein samples were prepared by centrifugation at the speed of 12,000× g for 30 min at 4 °C; the supernatant was boiled at 95 °C for 10 min and then subjected to SDS-PAGE. An amount of 15 µg of total protein was separated by electrophoresis in a 10% SDS-polyacrylamide gel and transferred to a PVDF membrane (Thermo Fisher Scientific, Cat#88520, Beijing, China). After blocking, the full membranes were cropped according to the molecular weight of examined proteins and incubated with antibodies at 4 °C overnight. The used antibodies were listed as follows: anti-iNOS (Abcam, ab178945, Cambridge, UK), anti-COX2 (Affinity, AF7003, Changzhou, China), anti-actin (Affinity Biosciences, AF7018, Changzhou, China), anti-ARG1 (Proteintech, 66129, Wuhan, China), anti-IL-1β (Proteintech, 26048, Wuhan, China), anti-GAPDH (Bioss, bs-41373R, Beijing, China), anti-IL-6 (Affinity, DF6087, Changzhou, China), anti-TNFα (Affinity, AF7014, Changzhou, China), anti-IBA1 (Affinity, DF6442, Changzhou, China). The membranes were washed to remove unbound antibodies and then incubated with HRP-conjugated secondary antibodies at room temperature for 45 min. Protein bands were visualized one by one with an ECL kit (Millipore, Cat#6-201BP, Beijing, China). The uncropped immunoblot data were uploaded as a Supplementary File. Densitometry analysis was performed using Image J Software, Version 1.54p (Rawak Software Inc., Stuttgart, Germany) relative to the loading control, β-actin; GAPDH; or tubulin. The average protein levels of control group cells or control mice from each independent experiment or mice were set as 1, and relative changes were calculated.
Male, 4-week-old C57BL/6J mice were obtained from Peking SiPeiFu Biotechnology Co., Ltd. (Beijing, China), with quality certificate number No.110324241107423512. After acclimation, mice were weighted and divided randomly into 6 groups, including control, LPS control mice, LPS + dexamethasone (Dex, 15 mg/kg), and LPS + HN-005 (10, 20, 40 mg/kg). Mice were intraperitoneally injected with dexamethasone or compound 5 for 2 days, while the control and LPS control group was intraperitoneally injected with an identical volume of 200 μL 0.9% saline. A total of 6 mg/kg LPS was intraperitoneally injected on the second day beyond the control group. After treatment, the mice were weighed and euthanized for brain anatomy.
Mice were anesthetized and their chest dissected to expose the heart sufficiently. The infusion needle penetrated the ventriculus sinister by about 0.5 cm and perfused it with 40 mL sterile PBS buffer until the liver turned white. Then, the prefrontal cortex and hippocampus were separated and preserved. For the immunochemistry assay, the cortex and hippocampus were fixed at 4% PFA at room temperature for 2–4 days. The fixed brain was embedded into paraffin and sectioned at 5 μm in the coronal plane using a sliding microtone (Leica, CM1950, Weztlar, Germany), then blocked with 5% goat serum TBS buffer at room temperature for one hour. After blocking, tissue slides were incubated with the first antibody against IBA1 (Affinity, DF6442, Changzhou, China) at 4 °C for 16 h, then rinsed with TBST three times and incubated with Alex flour 555 conjugated goat anti-rabbit secondary antibody (1:500) and DAPI (1:1000) at 4 °C overnight. A section incubated only with the secondary antibody was used as a negative control. For HE staining, the section was stained with an H&E staining kit (Servicebio, G1076, Wuhan, China) per the manufacturer’s instruction. Fluorescence images were acquired using a confocal microscope (Olympus, Tokyo, Japan). […]

[7] = system: LPS-treated BV2 microglia cells; experiment: Inflammatory markers in LPS-treated microglia cells (Western blot); assay type: cell-based; settings: 2.5, 5, 10 μM
Method: as §3, with “The membranes were washed to remove unbound antibodies and then incubated with HRP-conjugated secondary antibodies at room temperature for 45 min. Protein bands were visualized one by one with an ECL kit (Millipore, Cat#6-201BP, Beijing, China). The uncropped immunoblot data were uploaded as a Supplementary File. Densitometry analysis was performed using Image J Software, Version 1.54p (Rawak Software Inc., Stuttgart, Germany) relative to the loading control, β-actin; GAPDH; or tubulin.” left out

Vero cells = system: Vero cells; parameters: method as in PMID 25734623; settings: noncancerous Vero cells; read-out: IC50 toxicity; cited from earlier work
NF-κB p65 = NF-κB p65 signaling pathway (Western blot); assay type: cell-based; settings: 2.5, 5, 10 μM, LPS-treated BV2 cells
Method: as §3, with “The membranes were washed to remove unbound antibodies and then incubated with HRP-conjugated secondary antibodies at room temperature for 45 min. Protein bands were visualized one by one with an ECL kit (Millipore, Cat#6-201BP, Beijing, China). The uncropped immunoblot data were uploaded as a Supplementary File. Densitometry analysis was performed using Image J Software, Version 1.54p (Rawak Software Inc., Stuttgart, Germany) relative to the loading control, β-actin; GAPDH; or tubulin.” left out

BV2 microglial cells = experiment: BV2 cell viability / proliferation (CCK-8, cell count); assay type: cell-based; settings: 20 µM
Method: as §1, §2

AD mice = system: AD mice; parameters: method as in PMID 38616356, PMID 31590042; settings: relative to untreated AD mice; cited from earlier work
NF-κB signaling = system: NF-κB signaling; parameters: method as in PMID 38616356, PMID 31590042; settings: BV2 microglia; read-out: IC50 suppressing NF-κB signaling; cited from earlier work

## C=C1CO[C@@]2(O)CC3=CC(=O)C(O)=C(C)[C@@]3(C)C[C@@]12O [septoreremophilane F]
[1]
  IC50: 12 ± 0.32 µM

## CC(C)(O)c1coc(S(=O)(=O)NC(=O)Nc2c3c(cc4c2CCC4)CCC3)c1 [MCC950]
APP/PS1 transgenic mice
  attenuation of hippocampal IL-1β production: 68.5%

## Oc1ccc(/C=C/c2cc(O)cc(O)c2)cc1 [Resveratrol]
[2]
  reduction in CSF TNF-α levels: 31.6%

## C=C(C)[C@]1(O)C[C@@]2(C)C(=CC1=O)CC[C@@H](O)[C@@H]2C [Compound 3, Hydroxypetasol]
[3]
  NO inhibition (SAR statement): high reduction in NO inhibition

## C=C(C)[C@@]12O[C@@H]1[C@@]1(C)C(=C[C@@H]2O)CC[C@@H](O)[C@@H]1C [Compound 5, dihydrosporogen AO-1]
Lactuca sativa
  inhibition (radicle growth): 70%
[4]
  IC50: 170 µM
[5]
  IC50: 38 µM
[6]
  iNOS and ARG 1 protein levels: dose-dependently reversed iNOS elevations and ARG 1
  ratio of ARG 1 to iNOS: corrected the decreased ratio of ARG 1 to iNOS
[3]; 24 h
  reduction in NO content: 78%
[3]; Mus musculus, BV-2, LPS-treated BV2 microglial cells, 24 h, read-out: EC50 in decreasing cellular NO production
  EC50: 3.11 µM
[3]; cytotoxicity IC50 vs NO EC50, BV2 cells
  selectivity index (SI): 12.2
Ehrlich carcinoma cells
  ED50 cytotoxicity: 400 µM
Echinochloa crus-galli
  IC50: 300 µM
LPS-treated mice
  expression levels of IBA1 in cortex: markedly decreased the expression levels of IBA1
  inflammatory markers iNOS, COX2, IL-1β, IL-6 in cortex (mRNA and protein): efficiently suppressed the activation of these inflammatory markers
  protein level of ARG 1 in cortex: dose-dependently increased the protein level of ARG 1
LPS-treated mice; 10, 20, 40 mg/kg
  neuroinflammation in hippocampus tissue: inhibits neuroinflammation in the hippocampus tissue
[7]
  level of inflammatory markers IBA1, COX-2, TNF-α, IL-1β, IL-6: efficiently reversed the increases in the level of inflammatory markers
Vero cells
  IC50: 24000 µM
NF-κB p65
  activation of NF-κB axis (phosphorylated NF-κB p65): dose-dependently reversed the activation of the NF-κB axis
  total level of NF-κB p65: no major change

## C=C(C)C1=C[C@@]2(C)C(=CC1=O)CC[C@@H](O)[C@@H]2C [Compound 9, 6-dehydropetasol]
BV2 microglial cells
  proliferation inhibition (cytotoxicity): 35–85%

## C=C(C)[C@@H]1C[C@@]2(C)C(=CC1=O)CC[C@@H](O)[C@@H]2C [Compound 8, petasol]
BV2 microglial cells
  proliferation inhibition (cytotoxicity): 35–85%

## C[C@@H]1C[C@H]2[C@@H]3CCC4=CC(=O)C=C[C@]4(C)[C@@]3(F)[C@@H](O)C[C@]2(C)[C@@]1(O)C(=O)CO [Dex, dexamethasone, reference compound]
[3]; 24 h
  reduction in NO content: 77%
LPS-treated mice
  expression levels of IBA1 in cortex: markedly decreased the expression levels of IBA1
  inflammatory markers iNOS, COX2, IL-1β, IL-6 in cortex (mRNA and protein): efficiently suppressed the activation of these inflammatory markers
  protein level of ARG 1 in cortex: no induction effect was observed

## CC1C(O)CCC2=CC(=O)C(C(C)(C)O)=CC21C (stereo not shown) [Compound 2, Phomenone D]
[3]
  NO inhibition (SAR statement): high reduction in NO inhibition

## COc1cc(/C=C/C(=O)CC(=O)/C=C/c2ccc(O)c(OC)c2)ccc1O [curcumin]
AD mice
  improvement in radial arm maze errors: 37.2%
NF-κB signaling
  IC50: 4.7 µM
